System: patients with ARSI-resistant mCRPC
Assay: Phase 1 trial of AZD5069 plus enzalutamide: safety and tolerability (DLTs, treatment-emergent adverse events, NCI-CTCAE v.4.0)
Assay type: in vivo
From the text: The primary trial objective was to evaluate the safety and tolerability of the combination. Key secondary objectives were to evaluate pharmacokinetic–pharmacodynamic parameters and antitumour activity.
Eligible patients were consenting patients aged ≥18 years, who had mCRPC with histologically confirmed prostate adenocarcinoma histology, documented cancer progression at the time of trial entry by Response Evaluation Criteria in Solid Tumors (v.1.1) and/or Prostate Cancer Working Group 2 criteria, and PSA of ≥10 ng ml^−1 at screening.
The dose-escalation phase used a rule-based 3 + 3 design, with an initial three patients enrolled per dose level. If none of the first three patients experienced a DLT, dose escalation proceeded to the next dose level. […] If fewer than two of six patients at any dose level experienced a DLT, dose escalation continued to the next level. If at least two out of up to six patients experienced a DLT, dose escalation stopped and this dose level was defined as the maximum administered dose. Once this maximum administered dose was defined, the maximum tolerated dose (MTD) was confirmed at the dose level below the maximum administered dose. At least six evaluable patients were required to establish the MTD at a specific dose level. […] Intra-patient dose escalation was not permitted. Start of dosing between the first and second patient enrolled to each dose level was staggered by 1 week. Once the MTD was determined in the phase 1 study, the recommended phase 2 dose was determined on the basis of available data, including but not limited to safety and response.
DLTs were defined as described in the study protocol. […] Prophylaxis with growth factor support or antipyretics were not permitted. Investigators determined whether an adverse event was related to the study drugs. If a patient experienced clinically significant and/or unacceptable toxicity, including a DLT, not attributable to the disease or disease-related processes, dosing was interrupted or the dose was reduced and supportive therapy was administered as required.

C[C@@H](Oc1cc(NS(=O)(=O)N2CCC2)nc(SCc2cccc(F)c2F)n1)[C@@H](O)CO [AZD5069]
TEAE Arthralgia, G≥3 (AZD5069 160 mg BD (n=6)): 0 (0) n (%)
TEAE Aspartate aminotransferase increased, All G (AZD5069 160 mg BD (n=6)): 0 (0) n (%)
TEAE Aspartate aminotransferase increased, G≥3 (AZD5069 160 mg BD (n=6)): 0 (0) n (%)
TEAE Constipation, All G (AZD5069 160 mg BD (n=6)): 0 (0) n (%)
TEAE Constipation, G≥3 (AZD5069 160 mg BD (n=6)): 0 (0) n (%)
TEAE Death, All G (AZD5069 160 mg BD (n=6)): 0 (0) n (%)
TEAE Death, G≥3 (AZD5069 160 mg BD (n=6)): 0 (0) n (%)
TEAE Decreased appetite, All G (AZD5069 160 mg BD (n=6)): 0 (0) n (%)
TEAE Decreased appetite, G≥3 (AZD5069 160 mg BD (n=6)): 0 (0) n (%)
TEAE Diarrhoea, All G (AZD5069 160 mg BD (n=6)): 0 (0) n (%)
TEAE Diarrhoea, G≥3 (AZD5069 160 mg BD (n=6)): 0 (0) n (%)
TEAE Dry skin, All G (AZD5069 160 mg BD (n=6)): 0 (0) n (%)
TEAE Dry skin, G≥3 (AZD5069 160 mg BD (n=6)): 0 (0) n (%)
TEAE Fatigue, All G (AZD5069 160 mg BD (n=6)): 2 (33) n (%)
TEAE Fatigue, G≥3 (AZD5069 160 mg BD (n=6)): 0 (0) n (%)
TEAE Headache, All G (AZD5069 160 mg BD (n=6)): 0 (0) n (%)
TEAE Headache, G≥3 (AZD5069 160 mg BD (n=6)): 0 (0) n (%)
TEAE Hypophosphataemia, All G (AZD5069 160 mg BD (n=6)): 0 (0) n (%)
TEAE Hypophosphataemia, G≥3 (AZD5069 160 mg BD (n=6)): 0 (0) n (%)
TEAE Nausea, All G (AZD5069 160 mg BD (n=6)): 2 (33) n (%)
TEAE Nausea, G≥3 (AZD5069 160 mg BD (n=6)): 0 (0) n (%)
TEAE Neutrophil decreased, All G (AZD5069 160 mg BD (n=6)): 5 (83) n (%)
TEAE Neutrophil decreased, G≥3 (AZD5069 160 mg BD (n=6)): 4 (67) n (%)
TEAE Oedema genital, All G (AZD5069 160 mg BD (n=6)): 1 (17) n (%)
TEAE Oedema genital, G≥3 (AZD5069 160 mg BD (n=6)): 0 (0) n (%)
TEAE Platelet decreased, All G (AZD5069 160 mg BD (n=6)): 1 (17) n (%)
TEAE Platelet decreased, G≥3 (AZD5069 160 mg BD (n=6)): 0 (0) n (%)
TEAE Pruritus, All G (AZD5069 160 mg BD (n=6)): 0 (0) n (%)
TEAE Pruritus, G≥3 (AZD5069 160 mg BD (n=6)): 0 (0) n (%)
TEAE Skin infection, All G (AZD5069 160 mg BD (n=6)): 0 (0) n (%)
TEAE Skin infection, G≥3 (AZD5069 160 mg BD (n=6)): 0 (0) n (%)
TEAE Vomiting, All G (AZD5069 160 mg BD (n=6)): 0 (0) n (%)
TEAE Vomiting, G≥3 (AZD5069 160 mg BD (n=6)): 0 (0) n (%)
TEAE White blood cell decreased, All G (AZD5069 160 mg BD (n=6)): 2 (33) n (%)
TEAE White blood cell decreased, G≥3 (AZD5069 160 mg BD (n=6)): 0 (0) n (%)
TEAE Anemia, All G (AZD5069 320 mg BD (n=7)): 0 (0) n (%)
TEAE Anemia, G≥3 (AZD5069 320 mg BD (n=7)): 0 (0) n (%)
TEAE Aphasia, All G (AZD5069 320 mg BD (n=7)): 1 (14) n (%)
TEAE Aphasia, G≥3 (AZD5069 320 mg BD (n=7)): 0 (0) n (%)
TEAE Arthralgia, All G (AZD5069 320 mg BD (n=7)): 1 (14) n (%)
TEAE Arthralgia, G≥3 (AZD5069 320 mg BD (n=7)): 0 (0) n (%)
TEAE Aspartate aminotransferase increased, All G (AZD5069 320 mg BD (n=7)): 1 (14) n (%)
TEAE Aspartate aminotransferase increased, G≥3 (AZD5069 320 mg BD (n=7)): 0 (0) n (%)
TEAE Constipation, All G (AZD5069 320 mg BD (n=7)): 1 (14) n (%)
TEAE Constipation, G≥3 (AZD5069 320 mg BD (n=7)): 0 (0) n (%)
TEAE Death, All G (AZD5069 320 mg BD (n=7)): 1 (14) n (%)
TEAE Death, G≥3 (AZD5069 320 mg BD (n=7)): 1 (14) n (%)
TEAE Decreased appetite, All G (AZD5069 320 mg BD (n=7)): 1 (14) n (%)
TEAE Decreased appetite, G≥3 (AZD5069 320 mg BD (n=7)): 0 (0) n (%)
TEAE Diarrhoea, All G (AZD5069 320 mg BD (n=7)): 1 (14) n (%)
TEAE Diarrhoea, G≥3 (AZD5069 320 mg BD (n=7)): 1 (14) n (%)
TEAE Dry skin, All G (AZD5069 320 mg BD (n=7)): 1 (14) n (%)
TEAE Dry skin, G≥3 (AZD5069 320 mg BD (n=7)): 0 (0) n (%)
TEAE Fatigue, All G (AZD5069 320 mg BD (n=7)): 3 (43) n (%)
TEAE Fatigue, G≥3 (AZD5069 320 mg BD (n=7)): 0 (0) n (%)
TEAE Headache, All G (AZD5069 320 mg BD (n=7)): 3 (43) n (%)
TEAE Headache, G≥3 (AZD5069 320 mg BD (n=7)): 0 (0) n (%)
TEAE Hypophosphataemia, All G (AZD5069 320 mg BD (n=7)): 0 (0) n (%)
TEAE Hypophosphataemia, G≥3 (AZD5069 320 mg BD (n=7)): 0 (0) n (%)
TEAE Nausea, All G (AZD5069 320 mg BD (n=7)): 1 (14) n (%)
TEAE Nausea, G≥3 (AZD5069 320 mg BD (n=7)): 0 (0) n (%)
TEAE Neutrophil decreased, All G (AZD5069 320 mg BD (n=7)): 6 (86) n (%)
TEAE Neutrophil decreased, G≥3 (AZD5069 320 mg BD (n=7)): 4 (57) n (%)
TEAE Oedema genital, All G (AZD5069 320 mg BD (n=7)): 0 (0) n (%)
TEAE Oedema genital, G≥3 (AZD5069 320 mg BD (n=7)): 0 (0) n (%)
TEAE Platelet decreased, All G (AZD5069 320 mg BD (n=7)): 0 (0) n (%)
TEAE Platelet decreased, G≥3 (AZD5069 320 mg BD (n=7)): 0 (0) n (%)
TEAE Pruritus, All G (AZD5069 320 mg BD (n=7)): 0 (0) n (%)
TEAE Pruritus, G≥3 (AZD5069 320 mg BD (n=7)): 0 (0) n (%)
TEAE Skin infection, All G (AZD5069 320 mg BD (n=7)): 0 (0) n (%)
TEAE Skin infection, G≥3 (AZD5069 320 mg BD (n=7)): 0 (0) n (%)
TEAE Vomiting, All G (AZD5069 320 mg BD (n=7)): 0 (0) n (%)
TEAE Vomiting, G≥3 (AZD5069 320 mg BD (n=7)): 0 (0) n (%)
TEAE White blood cell decreased, All G (AZD5069 320 mg BD (n=7)): 1 (14) n (%)
TEAE White blood cell decreased, G≥3 (AZD5069 320 mg BD (n=7)): 0 (0) n (%)
TEAE Anemia, All G (All patients (n=23)): 4 (17) n (%)
TEAE Anemia, G≥3 (All patients (n=23)): 1 (4) n (%)
TEAE Aphasia, All G (All patients (n=23)): 1 (4) n (%)
TEAE Aphasia, G≥3 (All patients (n=23)): 0 (0) n (%)
TEAE Arthralgia, All G (All patients (n=23)): 1 (4) n (%)
TEAE Arthralgia, G≥3 (All patients (n=23)): 0 (0) n (%)
TEAE Aspartate aminotransferase increased, All G (All patients (n=23)): 1 (4) n (%)
TEAE Aspartate aminotransferase increased, G≥3 (All patients (n=23)): 0 (0) n (%)
TEAE Constipation, All G (All patients (n=23)): 2 (9) n (%)
TEAE Constipation, G≥3 (All patients (n=23)): 0 (0) n (%)
TEAE Death, All G (All patients (n=23)): 1 (4) n (%)
TEAE Death, G≥3 (All patients (n=23)): 1 (4) n (%)
TEAE Decreased appetite, All G (All patients (n=23)): 1 (4) n (%)
TEAE Decreased appetite, G≥3 (All patients (n=23)): 0 (0) n (%)
TEAE Diarrhoea, All G (All patients (n=23)): 1 (4) n (%)
TEAE Diarrhoea, G≥3 (All patients (n=23)): 1 (4) n (%)
TEAE Dry skin, All G (All patients (n=23)): 1 (4) n (%)
TEAE Dry skin, G≥3 (All patients (n=23)): 0 (0) n (%)
TEAE Fatigue, All G (All patients (n=23)): 7 (30) n (%)
TEAE Fatigue, G≥3 (All patients (n=23)): 0 (0) n (%)
TEAE Headache, All G (All patients (n=23)): 3 (13) n (%)
TEAE Headache, G≥3 (All patients (n=23)): 0 (0) n (%)
TEAE Hypophosphataemia, All G (All patients (n=23)): 1 (4) n (%)
TEAE Hypophosphataemia, G≥3 (All patients (n=23)): 0 (0) n (%)
TEAE Nausea, All G (All patients (n=23)): 5 (22) n (%)
TEAE Nausea, G≥3 (All patients (n=23)): 0 (0) n (%)
TEAE Neutrophil decreased, All G (All patients (n=23)): 19 (83) n (%)
TEAE Neutrophil decreased, G≥3 (All patients (n=23)): 11 (48) n (%)
TEAE Oedema genital, All G (All patients (n=23)): 1 (4) n (%)
TEAE Oedema genital, G≥3 (All patients (n=23)): 0 (0) n (%)
TEAE Platelet decreased, All G (All patients (n=23)): 2 (9) n (%)
TEAE Platelet decreased, G≥3 (All patients (n=23)): 0 (0) n (%)
TEAE Pruritus, All G (All patients (n=23)): 1 (4) n (%)
TEAE Pruritus, G≥3 (All patients (n=23)): 0 (0) n (%)
TEAE Skin infection, All G (All patients (n=23)): 1 (4) n (%)
TEAE Skin infection, G≥3 (All patients (n=23)): 0 (0) n (%)
TEAE Vomiting, All G (All patients (n=23)): 1 (4) n (%)
TEAE Vomiting, G≥3 (All patients (n=23)): 0 (0) n (%)
TEAE White blood cell decreased, All G (All patients (n=23)): 3 (13) n (%)
TEAE White blood cell decreased, G≥3 (All patients (n=23)): 0 (0) n (%)
permanent treatment discontinuation due to treatment-emergent adverse events (all dose levels): no permanent treatment discontinuation
treatment-emergent anaemia, all grades (all dose levels, 23 patients): 17%
treatment-emergent anaemia, grade ≥ 3 (all dose levels, 23 patients): 4%
treatment-emergent constipation, all grades (all dose levels, 23 patients): 9%
treatment-emergent fatigue, all grades (all dose levels, 23 patients): 30%
treatment-emergent headache, all grades (all dose levels, 23 patients): 13%
treatment-emergent leukopaenia, all grades (all dose levels, 23 patients): 13%
treatment-emergent nausea, all grades (all dose levels, 23 patients): 22%
treatment-emergent neutropaenia, all grades (all dose levels, 23 patients): 83%
treatment-emergent neutropaenia, grade ≥ 3 (all dose levels, 23 patients): 48%
treatment-emergent thrombocytopaenia, all grades (all dose levels, 23 patients): 9%
